Data reported in patent US11840686B2, “Modulation of prekallikrein (PKK) expression” (Ionis Pharmaceuticals, Inc., priority 2013, dated 2023).
Strand notation (5' to 3'): a small letter for the sugar, then the base; units joined by * are phosphorothioate-linked, units joined directly phosphodiester-linked; [ ] holds rarer units or linkages, { } end groups; capitals alone tell only the bases. e = 2'-O-(2-methoxyethyl) (MOE); [5mC] = 5-methylcytosine; d = 2'-deoxy (DNA)

Key:
[1] = tested on: human PKK mRNA; assay: Dose-dependent antisense inhibition of human PKK in HepaRG cells, 0.19-5.00 uM (Example 5); assay type: cell-based
Method: Cells were plated at a density of 20,000 cells per well and transfected using electroporation with 0.19 μM, 0.56 μM, 1.67 μM, and 5.00 μM concentrations of antisense oligonucleotide. After a treatment period of approximately 16 hours, RNA was isolated from the cells and PKK mRNA levels were measured by quantitative real-time PCR. Human PKK primer probe set RTS3454 was used to measure mRNA levels. PKK mRNA levels were adjusted according to total RNA content, as measured by RIBOGREEN®. The antisense oligonucleotides were tested in a series of experiments that had similar culture conditions.
The half maximal inhibitory concentration (IC50) of each oligonucleotide is also presented.

[2] = tested on: human PKK mRNA; assay: Antisense inhibition of human PKK mRNA in HepaRG cells, 5,000 nM (Example 2); assay type: cell-based
In short: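 Chimeric MOE gapmers with full phosphorothioate backbones were tested once at 5,000 nM in electroporated HepaRG cells. After about 24 hours, quantitative PCR measured PKK mRNA relative to untreated control cells.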

[3] = HepaRG cells, electroporation, approximately 16 hours, Table 36
[4] = HepaRG cells, electroporation, approximately 16 hours, Table 38
[5] = Table 34, HepaRG, electroporation, ~16 h
[6] = Table 34, PKK mRNA, HepaRG, electroporation, ~16 h
[7] = HepaRG cells, electroporation, approximately 16 hours, Table 40
[8] = HepaRG cells, electroporation, approximately 16 hours, Table 35
[9] = 4 point dose response, HepaRG cells, Table 35

546903 (e[5mC]*e[5mC]*eT*eA*eT*dA*dT*d[5mC]*dA*d[5mC]*dT*dG*dT*dA*d[5mC]*e[5mC]*eT*eA*eT*eA; antisense) [compound 546903]
percent inhibition of PKK at 0.19 μM [1, 3]: 15%
percent inhibition of PKK at 0.56 μM [1, 3]: 37%
percent inhibition of PKK at 1.67 μM [1, 3]: 74%
percent inhibition of PKK at 5.00 μM [1, 3]: 98%
IC50 ([1]; 4 point dose response, HepaRG cells, Table 36): 800 nM
% inhibition ([2]; human PKK mRNA, HepaRG cells, 5-10-5 motif oligonucleotides targeting SEQ ID NO: 1 and 10): 91%

546287 (antisense eG*eT*eT*eG*eT*d[5mC]*d[5mC]*d[5mC]*d[5mC]*dA*dG*dT*dG*dT*dT*eA*e[5mC]*eA*e[5mC]*eA) [compound 546287]
percent inhibition of PKK at 0.19 μM [1, 4]: 0%
percent inhibition of PKK at 0.56 μM [1, 4]: 15%
percent inhibition of PKK at 1.67 μM [1, 4]: 39%
percent inhibition of PKK at 5.00 μM [1, 4]: 89%
IC50 ([1]; 4 point dose response, HepaRG cells, Table 38): 1700 nM
% inhibition ([2]; Table 8, HepaRG cells, electroporation with 5,000 nM antisense oligonucleotide, approx. 24 hours, PKK mRNA by RT-PCR (RTS3454), relative to untreated control cells): 82%

546829 (eA*eA*e[5mC]*eA*eG*dT*dA*dT*d[5mC]*dA*d[5mC]*dT*dG*dT*dA*e[5mC]*eT*eA*eG*eT; antisense) [compound 546829]
percent inhibition of PKK at 0.19 μM [1, 5]: 3%
percent inhibition of PKK at 0.56 μM [1, 5]: 30%
percent inhibition of PKK at 1.67 μM [1, 5]: 73%
percent inhibition of PKK at 5.00 μM [1, 5]: 88%
IC50 [1, 6]: 1000 nM
% inhibition ([2]; Table 13, human PKK mRNA in HepaRG cells, 5-10-5 gapmers): 94%

547374 (eG*eA*eT*eA*eG*dG*dT*dG*d[5mC]*dA*dG*dA*dT*dG*dG*eT*e[5mC]*e[5mC]*eG*eA; antisense) [compound 547374]
percent inhibition of PKK at 0.19 μM [1, 7]: 0%
percent inhibition of PKK at 0.56 μM [1, 7]: 15%
percent inhibition of PKK at 1.67 μM [1, 7]: 24%
percent inhibition of PKK at 5.00 μM [1, 7]: 44%
IC50 ([1]; 4 point dose response, HepaRG cells, Table 40): > 5000 nM
% inhibition ([2]; Table 7, HepaRG cells, electroporation with 5,000 nM antisense oligonucleotide, approx. 24 hours, PKK mRNA by RT-PCR (RTS3454), relative to untreated control cells): 81%

546852 (e[5mC]*eA*eG*eT*eA*dT*d[5mC]*dA*d[5mC]*dT*dG*dT*d[5mC]*d[5mC]*dT*eA*eT*eA*eT*e[5mC]; antisense) [compound 546852]
percent inhibition of PKK at 0.19 μM [1, 8]: 19%
percent inhibition of PKK at 0.56 μM [1, 8]: 40%
percent inhibition of PKK at 1.67 μM [1, 8]: 78%
percent inhibition of PKK at 5.00 μM [1, 8]: 85%
IC50 [1, 9]: 800 nM
% inhibition ([2]; human PKK mRNA in HepaRG cells, 5-10-5 gapmers, Table 14): 94%

547694 (antisense eG*eT*e[5mC]*eA*e[5mC]*dT*dG*dT*dA*d[5mC]*d[5mC]*dT*dA*dT*dA*eA*e[5mC]*eT*eG*eT) [compound 547694]
percent inhibition of PKK at 0.19 μM [1, 8]: 0%
percent inhibition of PKK at 0.56 μM [1, 8]: 29%
percent inhibition of PKK at 1.67 μM [1, 8]: 67%
percent inhibition of PKK at 5.00 μM [1, 8]: 90%
IC50 [1, 9]: 1200 nM
% inhibition ([2]; HepaRG cells, 5,000 nM antisense oligonucleotide, 5-10-5 gapmers, Table 16): 92%

547464 (antisense eG*e[5mC]*eT*eT*eG*dT*dG*dT*d[5mC]*dA*d[5mC]*d[5mC]*dT*dT*dT*eG*eG*eA*eA*eG) [compound 547464]
percent inhibition of PKK at 0.19 μM [1, 5]: 21%
percent inhibition of PKK at 0.56 μM [1, 5]: 52%
percent inhibition of PKK at 1.67 μM [1, 5]: 67%
percent inhibition of PKK at 5.00 μM [1, 5]: 97%
IC50 [1, 6]: 600 nM
% inhibition ([2]; Table 9 experiment, HepaRG cells, 20,000 cells per well, electroporation with 5,000 nM antisense oligonucleotide, approx. 24 hours, PKK mRNA by RT-PCR (RTS3454), relative to untreated control cells): 95%
% inhibition ([2]; Table 10 experiment, HepaRG cells, 20,000 cells per well, electroporation with 5,000 nM antisense oligonucleotide, approx. 24 hours, PKK mRNA by RT-PCR (RTS3454), relative to untreated control cells): 84%
